What was measured:
Staphylococcus aureus [1] = test: Antibacterial activity against Staphylococcus aureus assessed as log reduction in bacterial load measured after 5 mins; assay type: functional
Escherichia coli [2] = test: Antibacterial activity against Escherichia coli assessed as log reduction in bacterial load measured after 5 mins; assay type: functional
[3] = system: Mycobacterium tuberculosis; test: Antimycobacterial activity against Mycobacterium tuberculosis assessed as reduction in mycobacterial growth; assay type: functional
[4] = system: Mycobacterium tuberculosis; test: Antibacterial activity against Mycobacterium tuberculosis Erdman assessed as bacterial growth inhibition; assay type: functional
Staphylococcus aureus [5] = test: Antibacterial activity against Staphylococcus aureus assessed as bacterial growth inhibition measured after 24 hrs by micro-broth dilution method; assay type: functional
Staphylococcus aureus [6] = test: Antibacterial activity against Staphylococcus aureus assessed as bacterial growth inhibition incubated for 72 hrs by microdilution assay; assay type: functional, organism-based; conditions: Staphylococcus aureus; time 72 hrs
Enterococcus faecalis [7] = test: Antibacterial activity against Enterococcus faecalis assessed as bacterial growth inhibition incubated for 72 hrs by microdilution method; assay type: functional
Escherichia coli [8] = test: Antibacterial activity against Escherichia coli assessed as bacterial growth inhibition incubated for 72 hrs by microdilution method; assay type: functional; conditions: Escherichia coli, 72 h, read-out: MIC
Pseudomonas aeruginosa [9] = test: Antibacterial activity against Pseudomonas aeruginosa assessed as bacterial growth inhibition incubated for 72 hrs by microdilution method; assay type: functional; conditions: Pseudomonas aeruginosa, 72 h, read-out: MIC
Staphylococcus aureus [10] = test: Antibiofilm activity against methicillin-resistant Staphylococcus aureus assessed as inhibition of biofilm formation; assay type: functional
Staphylococcus aureus [11] = test: Antibacterial activity against methicillin-resistant Staphylococcus aureus assessed as bacterial growth inhibition; assay type: functional
Escherichia coli [12] = test: Antibacterial activity against Escherichia coli assessed as reduction bacterial cell growth; assay type: functional
Pseudomonas aeruginosa [13] = test: Antibacterial activity against Pseudomonas aeruginosa assessed as reduction in bacterial cell growth; assay type: functional
Klebsiella pneumoniae = test: Antibacterial activity against Klebsiella pneumoniae assessed as reduction in bacterial growth; assay type: functional
Acinetobacter baumannii = test: Antibacterial activity against Acinetobacter baumannii assessed as inhibition of bacterial cell growth; assay type: functional
Staphylococcus aureus [14] = test: Antimicrobial activity against Staphylococcus aureus assessed as reduction in bacterial growth; assay type: functional
Enterococcus faecalis [15] = test: Antibacterial activity against Enterococcus faecalis assessed as reduction in bacterial cell growth; assay type: functional
[16] = system: Stenotrophomonas maltophilia; test: Antibacterial activity against Stenotrophomonas maltophilia assessed as inhibition of bacterial growth; assay type: functional
Staphylococcus aureus [17] = test: Antibacterial activity against methicillin-sensitive Staphylococcus aureus assessed as reduction microbial growth; assay type: functional
Streptococcus pyogenes = test: Antibacterial activity against Streptococcus pyogenes ATCC 19615 assessed as reduction in bacterial growth incubated for 18 hrs by micro-broth dilution assay; assay type: functional
Staphylococcus aureus [18] = test: Antibacterial activity against Staphylococcus aureus NBRC 12732 assessed as reduction in bacterial growth by CLSI based broth microdilution method; assay type: functional
Staphylococcus aureus [19] = test: Antibacterial activity against Staphylococcus aureus assessed as reduction in bacterial growth inhibition measured after 18 to 24 hrs by micro-broth dilution method; assay type: functional; conditions: time 18-24 hrs
Pseudomonas aeruginosa [20] = test: Antibacterial activity against Pseudomonas aeruginosa assessed as inhibition of bacterial cell growth; assay type: functional
Bacillus cereus = test: Antibacterial activity against Bacillus cereus assessed as reduction in microbial growth after 18 hrs by MTT based broth dilution method; assay type: functional
Staphylococcus aureus [21] = test: Antibacterial activity against Staphylococcus aureus ATCC 700699 assessed as reduction in bacterial growth inhibition incubated for 24 hrs by microbroth-dilution method; assay type: functional
Staphylococcus aureus [22] = test: Antimicrobial activity against community acquired methicillin-resistant Staphylococcus aureus SH1000; assay type: functional
Staphylococcus aureus [23] = test: Antibiofilm activity against methicillin-resistant Staphylococcus aureus SH1000 assessed as reduction in bacterial growth; assay type: functional
Staphylococcus aureus [24] = test: Antibacterial activity against Staphylococcus aureus ATCC 25923 assessed as bacterial growth inhibition incubated for 24 hrs by microdilution method; assay type: functional
[25] = system: Staphylococcus epidermidis; test: Antibacterial activity against Staphylococcus epidermidis ATCC 12228 assessed as bacterial growth inhibition incubated for 24 hrs by microdilution method; assay type: functional
Escherichia coli [26] = test: Antibacterial activity against Escherichia coli ATCC 25922 assessed as reduction in bacterial growth incubated for 24 hrs by micro-dilution method; assay type: functional

CC1(C)C(=O)N(CCCCCCCCCCCC[n+]2ccccc2)C(=O)N1Cl.[Cl-]
log(activity) (Staphylococcus aureus [1]): 6.62 | log(activity) (Escherichia coli [2]): 2.16

CCCCCCc1ccc[n+](CCOC2C3CC4CC(C3)CC2C4)c1.CS(=O)(=O)[O-] (stereo unspecified)
MIC [3]: 3.1 µg/mL | MIC [4]: 1.6 µg/mL

CCCCCCCCCC[N+](C)(C)Cc1ccc(C[N+](C)(C)CCCCCCCCCC)cc1
MIC (Staphylococcus aureus [5]): 6.1 µM

CCCCCCCCCCCC[N+](C)(C)CCC[N+](C)(C)CCCCCCCCCCCC
MIC (Staphylococcus aureus [6]): 2 µM | MIC (Enterococcus faecalis [7]): 1 µM | MIC (Escherichia coli [8]): 1 µM | MIC (Pseudomonas aeruginosa [9]): 4 µM

CCCCCCCCCCCC[N+](C)(C)CCN(C)CC[N+](C)(C)CCCCCCCCCCCC
MIC (Staphylococcus aureus [6]): 1 µM | MIC (Enterococcus faecalis [7]): 2 µM | MIC (Escherichia coli [8]): 1 µM | MIC (Pseudomonas aeruginosa [9]): 4 µM | MIC (Staphylococcus aureus [10]): 1 µM

CCCCCCCCC[n+]1ccc(Oc2ccc(-c3ccc(Oc4cc[n+](CCCCCCCCC)cc4)cc3)cc2)cc1.[Br-].[Br-]
MIC (Staphylococcus aureus [11]): < 0.25 µg/mL | MIC (Escherichia coli [12]): < 0.25 µg/mL | MIC (Pseudomonas aeruginosa [13]): < 0.25 µg/mL | MIC (Klebsiella pneumoniae): < 0.25 µg/mL | MIC (Acinetobacter baumannii): < 0.25 µg/mL

C[N+](C)(C)CCCCC[N+](C)(C)C [PENTAMETHONIUM BROMIDE]
MIC (Staphylococcus aureus [6]): > 500 µM | MIC (Enterococcus faecalis [7]): > 500 µM | MIC (Escherichia coli [8]): > 500 µM | MIC (Pseudomonas aeruginosa [9]): > 500 µM

CCCCCCCC[N+](C)(C)CCOc1ccc(OCC[N+](C)(C)CCCCCCCC)cc1.[Br-].[Br-]
MIC (Staphylococcus aureus [14]): 0.5 µg/mL | MIC (Enterococcus faecalis [15]): 4 µg/mL | MIC [16]: 1 µg/mL

CCCCCC[N+](C)(C)CCOc1ccc(OCC[N+](C)(C)CCCCCC)cc1.[Br-].[Br-]
MIC (Staphylococcus aureus [14]): 32 µg/mL | MIC (Enterococcus faecalis [15]): 128 µg/mL | MIC [16]: 64 µg/mL

CCCCCCCCCCCC[N+](C)(C)CCC[N+](C)(C)CCC[N+](C)(C)CCCCCCCCCCCC
MIC (Staphylococcus aureus [17]): 0.5 µM

CCCCCCCCCCCCCCC[n+]1ccn(Cc2ccccc2)c1.[Br-]
MIC (Streptococcus pyogenes): 0.03 µg/mL

CCCCCCCCCCCC[N+](C)(C)CCCCCCCCCCCC
MIC (Staphylococcus aureus [6]): 1 µM | MIC (Enterococcus faecalis [7]): 1 µM | MIC (Escherichia coli [8]): 8 µM | MIC (Pseudomonas aeruginosa [9]): 32 µM

C[N+](CCO)(CCO)CCCCCCCCCCCCSc1nnc(-c2ccccc2)o1.[Br-]
MIC (Staphylococcus aureus [18]): 6.25 µg/mL

C[N+](C)(C)CCNC(=O)[C@H](Cc1c[nH]c2ccccc12)NC(=O)c1cc(Cl)ccc1NC(=O)c1ccc2ccccc2c1
MIC (Staphylococcus aureus [19]): 15.6 µM

CCCCCCCCCC[n+]1cccc(CN(Cc2ccc[n+](CCCCCCCCCC)c2)Cc2ccc[n+](CCCCCCCCCC)c2)c1
MIC (Staphylococcus aureus [11]): 0.5 µM | MIC (Staphylococcus aureus [14]): 0.5 µM | MIC (Escherichia coli [12]): 1 µM | MIC (Pseudomonas aeruginosa [20]): 2 µM | MIC (Enterococcus faecalis [15]): 1 µM

CCCCCCCC[N+](C)(C)CC(=O)Nc1ccc(C(=O)/C=C/c2ccccc2F)cc1
MIC (Bacillus cereus): 2 µM

CCCCCCCCCCCCCCCCCC[N+](C)(C)Cc1cnc(C)c(OC(C)=O)c1C.[Cl-]
MIC (Staphylococcus aureus [21]): 1 µg/mL

CCCCCCCCCCC[n+]1cccc(Oc2cccc(Oc3ccc[n+](CCCCCCCCCCC)c3)c2)c1.[Br-].[Br-]
MIC (Staphylococcus aureus [11]): < 0.25 µg/mL | MIC (Escherichia coli [12]): < 0.25 µg/mL | MIC (Klebsiella pneumoniae): < 0.25 µg/mL | MIC (Acinetobacter baumannii): < 0.25 µg/mL | MIC (Pseudomonas aeruginosa [20]): < 0.25 µg/mL

C=CC[N+](CCC[N+](C)(C)CCCCCCCCCC)(CCC[N+](C)(C)CCCCCCCCCC)CCC[N+](C)(C)CCCCCCCCCC.[Br-].[Br-].[Br-].[Br-]
MIC (Staphylococcus aureus [22]): 0.25 µM | MBEC (Staphylococcus aureus [23]): 25 µM

CCCCCCCCCCCCCCOC(=O)[C@H](Cc1ccccc1)[N+](C)(CC)CC
MIC (Staphylococcus aureus [24]): 3.6 µM | MIC [25]: 4.5 µM | MIC (Bacillus cereus): 5.4 µM

CCCCCCCCS(=O)(=O)Nc1ccc(-c2ccc(-c3ccccc3)cc2)cc1C(=O)C(=O)NCCC[N+](C)(C)C
MIC (Staphylococcus aureus [5]): 4 µM

CC1(C)[C@@H]2CC[C@H](CC[N+](C)(C)CC[C@H]3CC[C@@H]4C[C@H]3C4(C)C)[C@H]1C2.[I-]
MIC (Escherichia coli [26]): 5 µg/mL

— ChEMBL document CHEMBL5331054, “Antibacterial quaternary ammonium agents: Chemical diversity and biological mechanism” (Eur J Med Chem, 2022)
